Measurements taken from US7919623B2, “Naphthyridine derivatives having inhibitory activity against HIV integrase” (Shionogi & Co., Ltd., priority 2004, dated 2011).

How the values were obtained:
HIV integrase = HIV integrase (Human immunodeficiency virus type 1 group M subtype B, UniProt P04585); test: biochemical
Method: The inhibitory activities against integrase were determined by the assay described below. • (1) Preparation of DNA Solutions
Before using the DNA solutions, complementary chains were annealed by slowly cooling after boiling.
Streptavidin, obtained from Vector Laboratories, was dissolved in 0.1 M carbonate buffer (composition: 90 mM Na2CO3, 10 mM NaHCO3) at concentration of 40 μg/ml. After coating each well of immunoplates (obtained from NUNC) with 50 μl of the above solution at 4° C. over night, each well was washed twice with PBS (composition: 13.7 mM NaCl, 0.27 mM KCl, 0.43 mM Na2HPO4, 0.14 mM KH2PO4) and blocked with 300 μl of 1% skim milk in PBS for 30 min. Additionally, each well was washed twice with PBS and added 50 μl of substrate DNA solution (2 pmol/μl). The immunoplates were kept at room temperature for 30 min while shaking. Then, each well was washed twice with PBS and once with the distilled water.
Subsequently, in the each well prepared above were added 51 μl of the reaction solution prepared from 12 μl of the buffer (composition: 150 mM MOPS (pH7.2), 75 mM MnCl2, 50 mM 2-mercaptoethanol, 25% glycerol, 500 μg/ml bovine serum albumin-fraction V), and 39 μl of the distilled water. Then 9 μl of an integrase solution (30 pmol) was added and mixed well. In the well of negative control (NC) was added 9 μl of the integrase dilution buffer (composition: 20 mM MOPS (pH7.2), 400 mM potassium glutamate, 1 mM EDTA, 0.1% NP-40, 20% glycerol, 1 mM DTT, 4M urea), and mixed well using a plate mixer.
The plates were incubated at 30° C. for 60 minutes. The reaction solution was removed and washed three times with 250 μl of washing buffer (composition: 150 mM MOPS (pH7.2), 50 mM 2-mercaptoethanol, 25% glycerol, 500 μg/ml bovine serum albumin-fraction V).
Then each well was added with 53 μl of reaction solution prepared from 12 μl of buffer (composition: 150 mM MOPS (pH7.2), 75 mM MgCl2, 50 mM 2-mercaptoethanol, 25% glycerol, 500 μg/ml bovine serum albumin-fraction V) and 41 μl of distilled water. Further, each well was added with 6 μl of DMSO solution of a compound to be tested, and the well of positive control (PC) was added with 6 μl of DMSO, and mixed well by a plate mixer. After incubating the plate for 30 minutes at 30° C., was added 1 μl of target DNA (5 pmol/μl), and mixed well by a plate mixer.
After incubation for 10 minutes at 30° C., each plate was washed twice with PBS after removal of the reaction solution. Then, 100 μl of ×2000 diluted solution of anti-digoxigenin antibody labeled with alkaline phosphatase (sheep Fab fragment: Boehringer) was added allowed to bind for 1 hour at 30° C., and washed twice with PBS containing 0.05% Tween20 and once with PBS in this sequence. Next, 150 μl of the Alkaline phosphatase coloring buffer (composition: 10 mM p-Nitrophenylphosphate (obtained from Vector Laboratories), 5 mM MgCl2, 100 mM NaCl, 100 mM Tris-HCl (pH 9.5)) was added and allowed to react for 2 hours at 30° C. Then the reaction was terminated by the addition of 50 μl of 1N NaOH solution. The optical density at 405 nm (OD405nm) of each well was measured and the inhibition rate (IC50) was determined by the following expression. The inhibition rate(%)=100[1−{(C abs.−NC abs.)/(PC abs.−NC abs.)}]
C abs.; the OD of the well of the compound
NC abs.: the OD of the negative control (NC)
PC abs.: the OD of the positive control (PC)

SMILES | melting point [°C] | IC50 (HIV integrase) [µM]
COCC=Cc1nc(C(=O)NCCOC)c(O)c2ncc(Cc3ccc(F)cc3)cc12 [Example B-4, 3-(4-fluorobenzyl)-8-hydroxy-5-(3-methoxypropenyl)[1,6]naphthyridine-7-carboxylic acid (2-methoxyethyl)amide] | 125 to 126 | 0.0113
CCOCCNC(=O)c1nc(NC(=O)COC)c2cc(Cc3ccc(F)cc3)cnc2c1O [Example B-14, 3-(4-fluorobenzyl)-8-hydroxy-5-(2-methoxyacetylamino)[1,6]naphthyridine-7-carboxylic acid (2-ethoxyethyl)amide] | 175 to 177 | 0.0482
COCC=Cc1nc(C(=O)NN(C)C)c(O)c2ncc(Cc3ccc(F)cc3)cc12 [Example B-19, 3-(4-fluorobenzyl)-8-hydroxy-5-(3-methoxypropenyl)[1,6]naphthyridine-7-carboxylic acid N′,N′-dimethylhydrazide] | 115 to 116 | 0.0112
